One series deals with MCF7. In words: Cytotoxicity against human MCF7 cells assessed as cell viability measured after 24 hrs by MTT assay. It counts as functional, cell-based. The note with it: MCF7, 24 h. (In general: Tetrazolium dyes change colour on reduction, which living cells bring about.)
Series [1] addresses T1, Bromodomain-containing protein 9 (Homo sapiens, UniProt Q9H8M2).
T1 sequence (Q9H8M2 whole entry): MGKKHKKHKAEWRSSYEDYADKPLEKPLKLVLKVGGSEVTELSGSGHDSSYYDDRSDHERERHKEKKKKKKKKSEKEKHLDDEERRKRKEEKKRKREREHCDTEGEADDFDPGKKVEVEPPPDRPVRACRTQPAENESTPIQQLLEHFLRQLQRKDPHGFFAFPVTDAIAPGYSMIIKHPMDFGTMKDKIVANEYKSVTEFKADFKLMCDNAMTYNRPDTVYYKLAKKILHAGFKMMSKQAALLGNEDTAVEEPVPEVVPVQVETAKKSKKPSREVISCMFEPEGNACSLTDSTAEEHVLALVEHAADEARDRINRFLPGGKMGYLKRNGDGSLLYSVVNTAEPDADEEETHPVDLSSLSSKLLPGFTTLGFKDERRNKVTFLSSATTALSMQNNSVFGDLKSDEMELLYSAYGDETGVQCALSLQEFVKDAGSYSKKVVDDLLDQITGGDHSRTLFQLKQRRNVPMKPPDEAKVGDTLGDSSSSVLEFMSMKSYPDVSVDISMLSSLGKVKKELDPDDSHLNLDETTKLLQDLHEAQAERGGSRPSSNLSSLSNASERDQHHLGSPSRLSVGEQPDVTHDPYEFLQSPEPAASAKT
In words: Inhibition of BRD9 (unknown origin) by alpha screen analysis. For orientation: In Alpha technology, singlet oxygen from a donor bead excites a nearby acceptor bead.

Series [2] concerns the target CREB-binding protein (Homo sapiens) (UniProt Q92793). Description: Binding affinity of recombinant His-tagged CREBBP (unknown origin) to histone H4Ac (1 to 21 residues) K5/8/12/Ac-Biotin-OH assessed as residual binding at 10 uM incubated for 30 mins by alphascreen analysis relative to control.
Series [3] addresses Bromodomain-containing protein 4 (Homo sapiens) (UniProt O60885). In words: Binding affinity of recombinant His-tagged BRD4-BD1 (unknown origin) to histone H4Ac (1 to 21 residues) K5/8/12/Ac-Biotin-OH assessed as residual binding at 10 uM incubated for 30 mins by alphascreen analysis relative to control.
Series [4] in a line: Cytotoxicity against human erythrocytes assessed as cell viability measured after 24 hrs by MTT assay. It is filed as toxicity, cell-based, Erythrocyte.
In another series the test system is Jurkat. Description: Cytotoxicity against human Jurkat cells assessed as cell viability measured after 24 hrs by MTT assay. It is filed as functional, cell-based.
Another series relates to Caco-2. In words: Cytotoxicity against human Caco-2 cells assessed as cell viability measured after 24 hrs by MTT assay. It counts as functional, cell-based. The note with it: Caco-2, 24 h.
A further series deals with A-375. In words: Cytotoxicity against human A-375 cells assessed as cell viability measured after 24 hrs by MTT assay. The note with it: A-375, 24 h. It is filed as functional, cell-based.
The target of series [5] is Bromodomain-containing protein 4 (Homo sapiens) (UniProt O60885). In words: Binding affinity of recombinant His-tagged BRD4-BD2 (unknown origin) to histone H4Ac (1 to 21 residues) K5/8/12/Ac-Biotin-OH assessed as residual binding at 10 uM incubated for 30 mins by alphascreen analysis relative to control.
Series [6] has as its target Bromodomain-containing protein 2 (Homo sapiens) (UniProt P25440). Description: Binding affinity of recombinant His-tagged BRD2-BD2 (unknown origin) to histone H4Ac (1 to 21 residues) K5/8/12/Ac-Biotin-OH assessed as residual binding at 10 uM incubated for 30 mins by alphascreen analysis relative to control.
Series [7] has the same target. Description: Binding affinity of recombinant His-tagged BRD2-BD1 (unknown origin) to histone H4Ac (1 to 21 residues) K5/8/12/Ac-Biotin-OH assessed as residual binding at 10 uM incubated for 30 mins by alphascreen analysis relative to control.
Series [8] has as its target Bromodomain-containing protein 3 (Homo sapiens) (UniProt Q15059). Description: Binding affinity of recombinant His-tagged BRD3-BD1 (unknown origin) to histone H4Ac (1 to 21 residues) K5/8/12/Ac-Biotin-OH assessed as residual binding at 10 uM incubated for 30 mins by alphascreen analysis relative to control.
For a further series, the system named is HaCaT. Description: Cytotoxicity against human HaCaT cells assessed as cell viability measured after 24 hrs by MTT assay. It is filed as functional, cell-based.
Series [9] has as its target T2, Bromodomain-containing protein 9 (Homo sapiens) (UniProt Q9H8M2).
T2 sequence (whole entry): T1 sequence (Q9H8M2 whole entry)
Description: Binding affinity of GST-tagged BRD9 domain (unknown origin) to histone H4Ac (1 to 21 residues) assessed as residual binding at 10 uM by alphascreen analysis relative to control.

Series [10] addresses Bromodomain adjacent to zinc finger domain protein 2B (Homo sapiens) (UniProt Q9UIF8). Description: Binding affinity of recombinant His-tagged BAZ2B (unknown origin) to histone H3 (1 to 21 residues) K9/14Ac-Biotin-OH assessed as residual binding at 10 uM incubated for 30 mins by alphascreen analysis relative to control.
Series [11] addresses Bromodomain testis-specific protein (Homo sapiens) (UniProt Q58F21). Description: Binding affinity of recombinant His-tagged BRDT-BD1 (unknown origin) to histone H4Ac (1 to 21 residues) K5/8/12/Ac-Biotin-OH assessed as residual binding at 10 uM incubated for 30 mins by alphascreen analysis relative to control.
Series [12] addresses Bromodomain-containing protein 3 (Homo sapiens) (UniProt Q15059). In words: Binding affinity of recombinant His-tagged BRD3-BD2 (unknown origin) to histone H4Ac (1 to 21 residues) K5/8/12/Ac-Biotin-OH assessed as residual binding at 10 uM incubated for 30 mins by alphascreen analysis relative to control.

Sequence of Bromodomain adjacent to zinc finger domain protein 2B (Homo sapiens) (Q9UIF8 whole entry, the tested form may be a part): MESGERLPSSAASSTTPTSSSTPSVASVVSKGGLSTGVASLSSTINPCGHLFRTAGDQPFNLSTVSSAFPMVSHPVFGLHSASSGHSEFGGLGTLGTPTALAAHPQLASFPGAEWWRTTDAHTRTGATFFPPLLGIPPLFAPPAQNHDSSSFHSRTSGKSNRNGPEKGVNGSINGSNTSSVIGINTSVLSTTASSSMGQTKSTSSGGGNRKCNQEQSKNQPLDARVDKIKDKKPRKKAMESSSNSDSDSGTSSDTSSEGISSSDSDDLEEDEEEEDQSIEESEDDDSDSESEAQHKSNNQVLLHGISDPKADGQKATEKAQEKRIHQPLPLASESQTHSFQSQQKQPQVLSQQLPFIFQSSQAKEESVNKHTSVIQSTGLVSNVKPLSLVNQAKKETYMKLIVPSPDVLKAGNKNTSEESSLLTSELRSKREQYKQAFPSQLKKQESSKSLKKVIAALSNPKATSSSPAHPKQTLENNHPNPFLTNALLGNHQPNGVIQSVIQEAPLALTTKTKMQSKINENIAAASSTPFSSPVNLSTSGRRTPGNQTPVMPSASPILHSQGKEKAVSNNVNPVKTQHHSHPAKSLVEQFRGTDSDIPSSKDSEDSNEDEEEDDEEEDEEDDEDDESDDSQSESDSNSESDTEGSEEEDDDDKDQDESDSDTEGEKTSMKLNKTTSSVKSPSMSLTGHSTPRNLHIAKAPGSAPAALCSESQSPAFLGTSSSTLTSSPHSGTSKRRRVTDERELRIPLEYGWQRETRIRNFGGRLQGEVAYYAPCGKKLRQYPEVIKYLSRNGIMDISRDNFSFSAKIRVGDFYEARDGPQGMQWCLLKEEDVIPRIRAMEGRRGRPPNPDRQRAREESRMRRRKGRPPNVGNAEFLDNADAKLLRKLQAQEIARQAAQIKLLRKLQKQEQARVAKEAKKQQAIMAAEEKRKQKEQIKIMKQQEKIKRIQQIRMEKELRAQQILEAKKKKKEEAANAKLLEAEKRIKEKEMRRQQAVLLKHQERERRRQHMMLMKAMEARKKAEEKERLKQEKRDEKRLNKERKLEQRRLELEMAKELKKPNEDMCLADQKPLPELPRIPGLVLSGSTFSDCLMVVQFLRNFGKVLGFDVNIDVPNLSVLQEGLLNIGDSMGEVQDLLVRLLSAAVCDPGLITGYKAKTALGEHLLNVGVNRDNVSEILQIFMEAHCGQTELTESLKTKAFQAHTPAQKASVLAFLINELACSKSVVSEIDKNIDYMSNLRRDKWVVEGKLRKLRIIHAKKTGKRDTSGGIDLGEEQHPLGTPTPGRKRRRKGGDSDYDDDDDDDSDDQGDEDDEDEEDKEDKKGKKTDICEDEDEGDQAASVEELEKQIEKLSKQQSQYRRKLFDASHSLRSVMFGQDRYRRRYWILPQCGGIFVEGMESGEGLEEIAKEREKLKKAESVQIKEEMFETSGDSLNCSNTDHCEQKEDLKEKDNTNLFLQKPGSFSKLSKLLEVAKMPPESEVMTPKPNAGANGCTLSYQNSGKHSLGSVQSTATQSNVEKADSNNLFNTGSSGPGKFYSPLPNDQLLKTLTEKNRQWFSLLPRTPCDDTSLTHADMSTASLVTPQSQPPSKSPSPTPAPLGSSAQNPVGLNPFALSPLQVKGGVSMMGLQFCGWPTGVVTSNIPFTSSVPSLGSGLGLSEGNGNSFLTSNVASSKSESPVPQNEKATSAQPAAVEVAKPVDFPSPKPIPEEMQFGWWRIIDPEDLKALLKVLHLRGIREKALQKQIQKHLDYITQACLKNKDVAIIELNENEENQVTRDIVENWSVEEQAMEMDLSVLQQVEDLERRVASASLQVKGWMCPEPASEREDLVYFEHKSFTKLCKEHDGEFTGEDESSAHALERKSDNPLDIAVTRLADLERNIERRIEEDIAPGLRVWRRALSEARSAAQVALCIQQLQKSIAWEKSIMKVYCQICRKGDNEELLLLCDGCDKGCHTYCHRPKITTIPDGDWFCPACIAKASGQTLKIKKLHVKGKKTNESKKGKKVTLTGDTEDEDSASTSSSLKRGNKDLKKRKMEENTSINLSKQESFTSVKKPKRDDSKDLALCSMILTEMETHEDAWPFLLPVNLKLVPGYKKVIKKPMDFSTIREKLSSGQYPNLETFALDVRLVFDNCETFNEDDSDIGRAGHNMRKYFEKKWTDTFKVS
Sequence of Bromodomain-containing protein 2 (Homo sapiens) (P25440 whole entry, looked up, the tested form may be a part): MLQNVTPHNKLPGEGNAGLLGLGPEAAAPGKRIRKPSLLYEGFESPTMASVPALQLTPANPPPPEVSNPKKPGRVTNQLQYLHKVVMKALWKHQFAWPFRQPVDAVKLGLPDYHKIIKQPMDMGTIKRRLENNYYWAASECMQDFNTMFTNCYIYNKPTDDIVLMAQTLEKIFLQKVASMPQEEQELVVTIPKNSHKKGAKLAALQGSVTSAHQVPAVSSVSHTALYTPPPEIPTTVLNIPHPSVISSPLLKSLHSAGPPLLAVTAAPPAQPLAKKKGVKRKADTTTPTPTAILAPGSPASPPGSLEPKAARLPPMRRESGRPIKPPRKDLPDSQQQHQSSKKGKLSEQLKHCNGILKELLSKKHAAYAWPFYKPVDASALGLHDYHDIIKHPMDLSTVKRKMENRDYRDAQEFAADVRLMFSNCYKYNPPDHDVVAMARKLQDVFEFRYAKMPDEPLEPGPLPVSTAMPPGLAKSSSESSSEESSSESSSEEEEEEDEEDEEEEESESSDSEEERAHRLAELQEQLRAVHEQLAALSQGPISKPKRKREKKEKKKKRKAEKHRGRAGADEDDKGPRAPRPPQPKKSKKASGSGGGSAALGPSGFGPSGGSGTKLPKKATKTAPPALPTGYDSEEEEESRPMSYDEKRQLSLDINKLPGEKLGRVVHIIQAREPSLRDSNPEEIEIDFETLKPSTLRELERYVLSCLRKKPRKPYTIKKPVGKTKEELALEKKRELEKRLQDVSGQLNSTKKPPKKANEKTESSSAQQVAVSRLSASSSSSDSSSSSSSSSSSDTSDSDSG
Sequence of Bromodomain-containing protein 3 (Homo sapiens) (Q15059 2-726 limits assumed): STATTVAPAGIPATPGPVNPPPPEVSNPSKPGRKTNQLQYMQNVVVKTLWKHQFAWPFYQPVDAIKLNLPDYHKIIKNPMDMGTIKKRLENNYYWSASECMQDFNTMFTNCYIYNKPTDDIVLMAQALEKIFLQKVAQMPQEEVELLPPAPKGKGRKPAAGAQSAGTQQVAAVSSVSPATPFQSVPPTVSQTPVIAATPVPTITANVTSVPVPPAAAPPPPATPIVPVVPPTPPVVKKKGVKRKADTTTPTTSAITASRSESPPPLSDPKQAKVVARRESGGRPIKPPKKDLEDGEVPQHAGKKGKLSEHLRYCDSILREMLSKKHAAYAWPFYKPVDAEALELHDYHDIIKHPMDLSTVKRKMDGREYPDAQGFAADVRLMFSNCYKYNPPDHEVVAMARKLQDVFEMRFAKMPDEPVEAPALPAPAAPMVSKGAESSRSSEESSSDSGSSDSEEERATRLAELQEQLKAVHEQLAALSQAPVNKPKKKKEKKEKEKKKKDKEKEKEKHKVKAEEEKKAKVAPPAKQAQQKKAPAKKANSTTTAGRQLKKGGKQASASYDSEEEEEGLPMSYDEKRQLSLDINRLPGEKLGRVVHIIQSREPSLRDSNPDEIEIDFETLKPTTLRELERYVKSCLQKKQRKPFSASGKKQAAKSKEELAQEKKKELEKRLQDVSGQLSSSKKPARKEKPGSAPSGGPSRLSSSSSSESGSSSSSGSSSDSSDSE

Take `COc1ccc(-n2c(C)nn(C)c2=O)cc1OC`: the IC50 in the series on MCF7 was more than 500 µM; in series [1], 0.35 µM; in the series on Jurkat, 110 µM; in the series on Caco-2 it was 300 µM; with A-375, 450 µM; in the series on HaCaT, more than 500 µM. For the same compound, the Activity in series [2] was 96.3%; in series [3], more than 100%; in series [5] it was 94.7%; in series [6], more than 100%; in series [7] it was 96.5%; in series [8], more than 100%. Further, the Activity is 28.1% in [9], more than 100% in series [10], more than 100% in series [11] and more than 100% in [12]. Moreover, the IC50 at 24 h in series [4] is more than 500 µM.

Turning to `Cc1nn(C)c(=O)n1C1CCCCC1`, the Activity in series [9] came to 77.9%.

Consider `CCc1n[nH]c(=O)n1-c1ccc(OC)c(OC)c1`, for which the Activity in series [9] turned out to be 96.9%.

On to `CCc1n[nH]c(=O)n1-c1ccc(C)c(C)c1`, for which the Activity in series [9] amounted to 97.2%.

In the case of `Cc1cccc(-n2c(C)n[nH]c2=O)c1`, the Activity in [9] was more than 100%.

On to `CCn1nc(C)n(-c2ccc3c(c2)OCO3)c1=O`, for which the IC50 is more than 500 µM with MCF7; 5.44 µM in series [1]; more than 500 µM in the series with Jurkat; more than 500 µM in the series with Caco-2; more than 500 µM in the series on A-375; more than 500 µM in the series on HaCaT. The Activity in series [2] was more than 100%; in [3] it was 96.2%; in [5], 99.2%; in [6], more than 100%; in series [7] it was more than 100%; in series [8], 74.8%. The Activity in series [9] is 35.6%; in series [10], 97.5%; in series [11], more than 100%; in series [12], 99.9%. Further, the IC50 at 24 h in series [4] was more than 500 µM.

In the case of `Cc1nnc(O)n1-c1ccc(C(C)(C)C)cc1`, in series [9], the Activity is more than 100%.

Take `CCn1nc(C)n(-c2ccc(OC)c(OC)c2)c1=O`: the IC50 is 360 µM with MCF7; 7.62 µM in series [1]; 315 µM with Jurkat; 300 µM with Caco-2; 400 µM with A-375; more than 500 µM with HaCaT. Moreover, the Activity in series [2] is more than 100%; in series [3], 99.2%; in series [5] it was more than 100%; in [6], more than 100%; in [7] it was more than 100%; in [8], 97.8%. For the same compound, the Activity in series [9] was 50.8%; in series [10], more than 100%; in series [11] it was 97.9%; in series [12], more than 100%. The IC50 at 24 h in series [4] was more than 500 µM.

For `COc1ccc(-n2c(C)nnc2O)cc1OC`, the Activity in [9] worked out at 73.6%.

Consider `Cc1nn(C)c(=O)n1-c1ccc(F)c(C(F)(F)F)c1`, for which the Activity in series [9] was determined as 85.3%.

As for `Cc1nn(C)c(=O)n1-c1ccc2c(c1)OCO2`, the IC50 with MCF7 is 400 µM; in series [1], 11.1 µM; with Jurkat, 290 µM; in the series with Caco-2, 370 µM; with A-375, 400 µM; in the series on HaCaT it was more than 500 µM. The Activity in [2] is more than 100%; in [3], more than 100%; in series [5], 99.3%; in series [6], 94.4%; in series [7] it was more than 100%; in series [8] it was 97.3%. In addition, the Activity in [9] worked out at 58.8%; in [10], 92.8%; in series [11] it was 92.5%; in [12] it was 94.9%. Further, the IC50 at 24 h in series [4] was more than 500 µM.

Regarding `Cc1nn(C)c(=O)n1-c1ccc(C(C)(C)C)cc1`, the Activity in [9] turned out to be 95.7%.

Take `CCc1nn(C)c(=O)n1-c1cccc(C(F)(F)F)c1`: in [9], the Activity was 76.5%.

On to `Cc1ccc(-n2c(C)n[nH]c2=O)cc1`, for which the Activity in series [9] was more than 100%.

Regarding `CCc1nn(C)c(=O)n1-c1ccc(F)c(Cl)c1`, the IC50 is more than 500 µM in the series with MCF7; 1.86 µM in series [1]; 225 µM in the series with Jurkat; more than 500 µM in the series with Caco-2; 500 µM in the series on A-375; more than 500 µM in the series on HaCaT. Besides, the Activity in [2] was more than 100%; in series [3], 99.2%; in series [5], more than 100%; in series [6], more than 100%; in series [7], more than 100%; in series [8] it was more than 100%. Further, the Activity is 24.3% in series [9], more than 100% in [10], 98.2% in [11] and 98.3% in series [12]. The IC50 at 24 h in [4] is more than 500 µM.

For the compound `Cc1cc(-n2c(C)n[nH]c2=O)ccc1F`, the Activity in series [9] is more than 100%.

In the case of `CCc1nn(C)c(=O)n1C1CCCCC1`, the Activity in series [9] stood at 64.3%.

Regarding `CCc1n[nH]c(=O)n1-c1ccc(Cl)c(F)c1`, the Activity in [9] amounted to 91.8%.

As for `CCc1nn(CC)c(=O)n1-c1ccc(OC)c(OC)c1`, the Activity in [9] is more than 100%.

`CCc1ccc(-n2c(CC)n[nH]c2=O)cc1`: in series [9], the Activity is 97.1%.

As for `CCc1nn(CC)c(=O)n1-c1ccc(F)c(Cl)c1`, the Activity in [9] stood at 86.6%.

For the compound `Cc1cccc(-n2c(C)nn(C)c2=O)c1`, in series [9], the Activity was 86.7%.

On to `CCc1nn(CC)c(=O)n1-c1cccc(C(F)(F)F)c1`, for which the IC50 in the series on MCF7 is 490 µM; in series [1] it was 2.49 µM; in the series with Jurkat it was 270 µM; with Caco-2, more than 500 µM; with A-375, more than 500 µM; in the series with HaCaT, more than 500 µM. The Activity in [2] is more than 100%; in series [3], 97.7%; in series [5] it was more than 100%; in series [6] it was more than 100%; in series [7] it was 99%; in series [8], more than 100%. In addition, the Activity in [9] was 39.4%; in [10] it was more than 100%; in series [11] it was 98.3%; in series [12], 97.4%. Also, the IC50 at 24 h in series [4] was more than 500 µM.

With `CCc1n[nH]c(=O)n1-c1cccc(C(F)(F)F)c1`, the Activity in [9] was determined as 96.1%.

On to `CCc1nn(C)c(=O)n1-c1ccc(C)c(C)c1`, for which, in series [9], the Activity stood at 85.1%.

Consider `Cc1n[nH]c(=O)n1-c1ccc(F)c(C(F)(F)F)c1`, for which the Activity in series [9] came out at 97.8%.

On to `CCc1n[nH]c(=O)n1-c1ccc(F)c(C)c1`, for which the Activity in [9] was 94.9%.

Take `CCc1nn(CC)c(=O)n1-c1ccc2c(c1)OCO2`: in [9], the Activity was determined as 91.2%.

Consider `CCc1n[nH]c(=O)n1-c1ccc2c(c1)OCO2`, for which the Activity in series [9] was 84.6%.

For `CCc1n[nH]c(=O)n1-c1ccc(C)c(Cl)c1`, the Activity in [9] was 97.5%.

For orientation: IC50 means the concentration needed to halve the response being measured.

For the origin of these results see ChEMBL document CHEMBL5331094, “Identification of 2,4,5-trisubstituted-2,4-dihydro-3H-1,2,4-triazol-3-one-based small molecules as selective BRD9 binders” (Eur J Med Chem, 2023).
